pEC50, pIC50: −log10 of the molar value.
How the values were obtained:
[1] = molecular target: T1, Peroxisome proliferator-activated receptor alpha (Homo sapiens) (UniProt Q07869); assay: Intrinsic activity at PPAR-alpha (unknown origin) relative to fenofibric acid
T1 sequence (whole entry): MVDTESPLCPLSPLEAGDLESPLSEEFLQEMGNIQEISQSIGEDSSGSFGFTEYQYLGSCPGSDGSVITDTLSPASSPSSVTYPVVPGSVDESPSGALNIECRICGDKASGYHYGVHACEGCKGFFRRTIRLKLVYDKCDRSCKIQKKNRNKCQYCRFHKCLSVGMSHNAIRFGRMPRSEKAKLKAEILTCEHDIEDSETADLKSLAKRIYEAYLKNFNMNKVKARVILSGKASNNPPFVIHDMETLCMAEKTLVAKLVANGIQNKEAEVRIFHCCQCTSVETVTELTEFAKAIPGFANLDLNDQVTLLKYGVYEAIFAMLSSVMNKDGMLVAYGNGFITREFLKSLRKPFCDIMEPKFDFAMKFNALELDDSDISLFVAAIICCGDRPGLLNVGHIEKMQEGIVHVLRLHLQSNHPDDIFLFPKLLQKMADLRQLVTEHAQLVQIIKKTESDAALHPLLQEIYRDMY

[2] = molecular target: T2, Peroxisome proliferator-activated receptor alpha (Homo sapiens, UniProt Q07869); assay: Agonist activity at Gal4-tagged human PPAR-alpha expressed in HEK cells by transactivation assay; format: cell-based, HEK293
T2 sequence (Q07869 whole entry): T1 sequence (whole entry)

[3] = molecular target: T3, Peroxisome proliferator-activated receptor gamma (Homo sapiens, UniProt P37231); assay: Agonist activity at Gal4-tagged human PPAR-gamma expressed in HEK cells by transactivation assay; format: cell-based, HEK293
T3 sequence (P37231 whole entry): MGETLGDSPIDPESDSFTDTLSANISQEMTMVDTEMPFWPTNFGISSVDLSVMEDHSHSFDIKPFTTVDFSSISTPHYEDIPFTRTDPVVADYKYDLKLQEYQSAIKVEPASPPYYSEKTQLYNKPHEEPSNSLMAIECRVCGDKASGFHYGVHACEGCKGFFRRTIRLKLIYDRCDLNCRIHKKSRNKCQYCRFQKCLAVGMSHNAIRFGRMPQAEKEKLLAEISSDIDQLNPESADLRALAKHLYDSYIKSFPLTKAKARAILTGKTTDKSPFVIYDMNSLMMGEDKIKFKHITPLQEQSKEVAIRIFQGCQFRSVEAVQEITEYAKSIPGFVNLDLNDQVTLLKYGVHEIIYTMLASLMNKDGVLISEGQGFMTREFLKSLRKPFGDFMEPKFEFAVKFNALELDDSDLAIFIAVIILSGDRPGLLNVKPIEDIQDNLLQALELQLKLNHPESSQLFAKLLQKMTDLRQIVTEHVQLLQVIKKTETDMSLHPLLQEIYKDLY

[4] = test system: HEK293; assay: Selectivity ratio of EC50 for Gal4-tagged human PPAR-gamma expressed in HEK cells to EC50 for Gal4-tagged human PPAR-alpha expressed in HEK cells; format: cell-based
[5] = test system: Mus musculus; assay: Increase in ApoA1 level in transgenic mouse expressing human ApoA1 at 100 mg/kg administered qd through oral gavage measured after 10 days relative to vehicle-treated control; format: functional
[6] = test system: Mus musculus; assay: Decrease in triglyceride level in transgenic mouse expressing human ApoA1 at 100 mg/kg administered qd through oral gavage measured after 10 days relative to vehicle control; format: functional; set-up: scale not given: the % may be the effect or the level left
[7] = test system: Mus musculus; assay: Increase in HDL cholesterol level in transgenic mouse expressing human ApoA1 at 100 mg/kg administered qd through oral gavage measured after 10 days relative to vehicle control; format: functional
[8] = test system: Syrian golden hamster; assay: Decrease in liver triglyceride level in high fat-diet fed syrian golden hamster model of dyslipidemia at 10 mg/kg administered qd through oral gavage measured after 21 days by FPLC analysis relative to control; format: functional, Mesocricetus auratus; set-up: scale not given: the % may be the effect or the level left
[9] = test system: Syrian golden hamster; assay: Decrease in liver triglyceride level in high fat-diet fed syrian golden hamster model of dyslipidemia at 3 mg/kg administered qd through oral gavage measured after 21 days by FPLC analysis relative to control; format: functional, Mesocricetus auratus; set-up: scale not given: the % may be the effect or the level left
[10] = test system: Syrian golden hamster; assay: Decrease in liver triglyceride level in high fat-diet fed syrian golden hamster model of dyslipidemia at 1 mg/kg administered qd through oral gavage measured after 21 days by FPLC analysis relative to control; format: functional, Mesocricetus auratus; set-up: scale not given: the % may be the effect or the level left
[11] = test system: Syrian golden hamster; assay: Decrease in liver cholesterol level in high fat-diet fed syrian golden hamster model of dyslipidemia at 10 mg/kg administered qd through oral gavage measured after 21 days by FPLC analysis relative to control; format: functional, Mesocricetus auratus; set-up: scale not given: the % may be the effect or the level left
[12] = test system: Syrian golden hamster; assay: Decrease in liver cholesterol level in high fat-diet fed syrian golden hamster model of dyslipidemia at 3 mg/kg administered qd through oral gavage measured after 21 days by FPLC analysis relative to control; format: functional, Mesocricetus auratus; set-up: scale not given: the % may be the effect or the level left
[13] = test system: Syrian golden hamster; assay: Decrease in liver cholesterol level in high fat-diet fed syrian golden hamster model of dyslipidemia at 1 mg/kg administered qd through oral gavage measured after 21 days by FPLC analysis relative to control; format: functional, Mesocricetus auratus; set-up: scale not given: the % may be the effect or the level left
[14] = test system: Syrian golden hamster; assay: Decrease in plasma LDL cholesterol level in high fat-diet fed syrian golden hamster model of dyslipidemia administered qd through oral gavage measured after 21 days by FPLC analysis relative to control; format: functional, organism-based; settings: Mesocricetus auratus
[15] = test system: Syrian golden hamster; assay: Decrease in plasma LDL cholesterol level in high fat-diet fed syrian golden hamster model of dyslipidemia at 10 mg/kg administered qd through oral gavage measured after 21 days by FPLC analysis relative to control; format: functional, Mesocricetus auratus; set-up: scale not given: the % may be the effect or the level left
[16] = test system: Syrian golden hamster; assay: Decrease in plasma LDL cholesterol level in high fat-diet fed syrian golden hamster model of dyslipidemia at 3 mg/kg administered qd through oral gavage measured after 21 days by FPLC analysis relative to control; format: functional, Mesocricetus auratus; set-up: scale not given: the % may be the effect or the level left
[17] = test system: Syrian golden hamster; assay: Decrease in plasma triglyceride level in high fat-diet fed syrian golden hamster model of dyslipidemia at 10 mg/kg administered qd through oral gavage measured after 21 days by FPLC analysis relative to control; format: functional, Mesocricetus auratus; set-up: scale not given: the % may be the effect or the level left
[18] = test system: Syrian golden hamster; assay: Decrease in plasma triglyceride level in high fat-diet fed syrian golden hamster model of dyslipidemia at 3 mg/kg administered qd through oral gavage measured after 21 days by FPLC analysis relative to control; format: functional, Mesocricetus auratus; set-up: scale not given: the % may be the effect or the level left
[19] = test system: Syrian golden hamster; assay: Decrease in plasma triglyceride level in high fat-diet fed syrian golden hamster model of dyslipidemia at 1 mg/kg administered qd through oral gavage measured after 21 days by FPLC analysis relative to control; format: functional, Mesocricetus auratus; set-up: scale not given: the % may be the effect or the level left
[20] = test system: Syrian golden hamster; assay: Effect on plasma LDL cholesterol level in high fat-diet fed syrian golden hamster model of dyslipidemia at 1 mg/kg administered qd through oral gavage measured after 21 days by FPLC analysis (reference value: 91.7 +/- 8.1 mg/dl); format: functional, Mesocricetus auratus
[21] = test system: Syrian golden hamster; assay: Increase in liver cholesterol level in high fat-diet fed syrian golden hamster model of dyslipidemia at 1 mg/kg administered qd through oral gavage measured after 21 days by FPLC analysis relative to control; format: functional, Mesocricetus auratus
[22] = test system: Syrian golden hamster; assay: Decrease in liver triglyceride level in high fat-diet fed syrian golden hamster model of dyslipidemia administered qd through oral gavage measured after 21 days by FPLC analysis; format: functional, organism-based; settings: Mesocricetus auratus
[23] = molecular target: T2, Peroxisome proliferator-activated receptor alpha; assay: Binding affinity to human GST-tagged PPAR-alpha LBD expressed in Escherichia coli BL21 (DE3) PlysS after 30 mins in presence of fluorescein ligand FLA-A by fluorescence polarization assay
[24] = molecular target: T3, Peroxisome proliferator-activated receptor gamma; assay: Binding affinity to human GST-tagged PPAR-gamma LBD expressed in Escherichia coli BL21 after 30 mins in presence of fluorescein ligand FLA-A by fluorescence polarization assay

| Structure (SMILES) | Intrinsic activity [1] [%] | pEC50 [2] | pEC50 [3] | Ratio EC50 [4] | further results |
| --- | --- | --- | --- | --- | --- |
| CC(C)OC(=O)C(C)(C)Oc1ccc(C(=O)c2ccc(Cl)cc2)cc1 [FENOFIBRATE] | – | – | – | – | Activity [5]: 665%; Activity [6]: 32.5%; Activity [7]: 88% |
| COc1ccc(OC(=O)N(CC(=O)O)Cc2cc(OCc3nc(-c4ccc(Cl)cc4)oc3C)ccc2F)cc1 | > 50 | 8.17 | 5.96 | 160 | – |
| COC(=O)N(CC(=O)O)Cc1cccc(OCc2nc(-c3ccc(Cl)cc3)oc2C)c1 | – | – | – | – | Activity [8]: 23%; Activity [9]: 17%; Activity [10]: 6%; Activity [11]: 40.8%; Activity [12]: 15.4%; Activity [13]: -22%; Activity [14]: Dose-dependent effect; Activity [15]: 60%; Activity [16]: 46%; Activity [17]: 77%; Activity [18]: 45%; Activity [19]: 40%; Activity [20]: 89.3 mg/dL; Activity [21]: 22%; Activity [22]: Dose-dependent effect |
| COC(=O)N(CC(=O)O)Cc1cc(OCc2nc(-c3ccccc3)oc2C)ccc1F | > 50 | 7.23 | 5.07 | 146 | – |
| COC(=O)N(CC(=O)O)Cc1cc(OCc2nc(-c3ccc(S(C)(=O)=O)cc3)oc2C)ccc1F | > 50 | < 5.60 | < 4.60 | – | – |
| COC(=O)N(CC(=O)O)Cc1cc(OCc2nc(-c3ccc(C(C)(C)C)cc3)oc2C)ccc1F | > 50 | 8.57 | 6.38 | 154 | – |
| COC(=O)N(CC(=O)O)Cc1cc(OCc2nc(-c3ccc(OC(F)(F)F)cc3)oc2C)ccc1F | > 50 | 8.37 | 5.62 | 556 | – |
| COC(=O)N(CC(=O)O)Cc1ccc(F)c(OCc2nc(-c3ccc(Cl)cc3)oc2C)c1 | > 50 | 7.03 | 5.04 | 98 | pIC50 [23]: 5.81; pIC50 [24]: < 4.82 |
| COC(=O)N(CC(=O)O)[C@@H](C)c1cccc(OCc2nc(-c3ccc(Cl)cc3)oc2C)c1 | > 50 | 8.07 | 5.54 | 332 | pIC50 [23]: 6.17; pIC50 [24]: < 4.82 |
| COC(=O)N(CC(=O)O)Cc1cc(F)cc(OCc2nc(-c3ccc(Cl)cc3)oc2C)c1 | > 50 | 7.74 | 5.55 | 157 | pIC50 [23]: 5.87; pIC50 [24]: < 4.82 |

Continued, in another order:

| Intrinsic activity [1] [%] | pEC50 [2] | pEC50 [3] | Structure (SMILES) | Ratio EC50 [4] | further results |
| --- | --- | --- | --- | --- | --- |
| > 50 | 8.44 | 5.69 | COC(=O)N(CC(=O)O)Cc1cc(OCc2nc(-c3ccc(C(F)(F)F)cc3)oc2C)ccc1F | 566 | – |
| > 50 | 8.40 | 5.37 | CCOC(=O)N(CC(=O)O)Cc1cc(OCc2nc(-c3ccc(Cl)cc3)oc2C)ccc1F | 1080 | – |
| > 50 | 7.97 | 5.36 | Cc1oc(-c2ccc(Cl)cc2)nc1COc1ccc(F)c(CN(CC(=O)O)C(=O)OCCCF)c1 | 413 | – |
| > 50 | 7.84 | 5.00 | COC(=O)N(CC(=O)O)Cc1cc(OCc2nc(-c3ccc(F)cc3)oc2C)ccc1F | 691 | – |
| > 50 | 8.55 | 5.66 | COC(=O)N(CC(=O)O)Cc1cc(OCc2nc(-c3ccc(C)cc3)oc2C)ccc1F | 787 | – |
| > 50 | 8.47 | 5.70 | CCCOC(=O)N(CC(=O)O)Cc1cc(OCc2nc(-c3ccc(Cl)cc3)oc2C)ccc1F | 594 | – |
| > 50 | 8.25 | 5.90 | Cc1ccc(OC(=O)N(CC(=O)O)Cc2cc(OCc3nc(-c4ccc(Cl)cc4)oc3C)ccc2F)cc1 | 224 | – |
| > 50 | 8.55 | 5.91 | CCCCOC(=O)N(CC(=O)O)Cc1cc(OCc2nc(-c3ccc(Cl)cc3)oc2C)ccc1F | 435 | – |
| > 50 | 8.64 | 5.82 | Cc1oc(-c2ccc(Cl)cc2)nc1COc1ccc(F)c(CN(CC(=O)O)C(=O)OCC(C)C)c1 | 666 | – |
